Test results from patent US6384085B1, “Material separated from Ecklonia cava, method for extracting and purifying the same, and use thereof as antioxidants” (Ventree Co., Ltd., priority 2000, dated 2002).

Assays:
[1] = Antioxidative activity: DPPH radical scavenging activity according to the Blois method; assay type: biochemical; details: 10 min reaction, absorbance at 517 nm
Method: (§1) The antioxidative activity of the novel compound obtained through the extraction and purification process is evaluated by measuring its radical scavenging activity against 1,1-diphenyl-2-picrylhydrazyl (DPPH), which has free radicals attached thereto, according to the Blois method. A thermal stability of the compound of interest can be evaluated by measuring its antioxidative activity at plural temperature points.
(§2) Dicaval C obtained in Example 3 was measured for antioxidative activity according to the Blois method. For this, an examination was made of the radical scavenging activity of the compound against 1,1-diphenyl-2-picrylhydrazyl (DPPH) to which free radicals were attached. First, 20 mg of DPPH was dissolved in 150 ml of ethanol to prepare a DPPH solution. To 600 μl of the DPPH solution was added 250 μl of dimethylsulfoxide (DMSO), diluted with an appropriate amount of ethanol and shaken for 10 seconds, after which this control was adjusted, in absorbance at 517 nm, from 0.94 to 0.97. To 1 ml of the DPPH solution which was adjusted from 0.94 to 0.97 likewise, each of the samples (μg to mg) was added and then, reacted for 10 min, followed by measuring the absorbance of the solution. The antioxidative activity of each of the samples was determined by the DPPH radical scavenging activity which was represented by a reduced absorbance compared with that of the control.

[2] = Thermal stability: antioxidative activity (DPPH) after heating for 1 hour; assay type: physicochemical
Method: as §1, §2
50 μg of Dicaval C obtained in Example 3 was heated at 40° C., 60° C., 80° C., and 100° C. for 1 hour to measure antioxidative activity.

[3] = 50 μg heated at 40 °C for 1 hour
[4] = 50 μg heated at 60 °C for 1 hour
[5] = 50 μg heated at 80 °C for 1 hour
[6] = 50 μg heated at 190 °C [sic] for 1 hour

Antioxidativity (Absorb. change) [2, 3] | Notes (thermal stability) [2, 3] | Antioxidativity (Absorb. change) [2, 4] | Notes (thermal stability) [2, 4] | Antioxidativity (Absorb. change) [2, 5] | Notes (thermal stability) [2, 5] | Antioxidativity (Absorb. change) [2, 6] | Notes (thermal stability) [2, 6] | Compound | DPPH radical scavenging activity (antioxidative activity) ([1]; sample amount 10 μg) [%] | DPPH radical scavenging activity (antioxidative activity) ([1]; sample amount 20 μg) [%] | DPPH radical scavenging activity (antioxidative activity) ([1]; sample amount 100 μg) [%]
 |  |  |  |  |  |  |  | O=C1O[C@H]([C@@H](O)CO)C(O)=C1O [Ascorbic acid, reference compound] | 100 | 100 | 100
0.87 | Stable | 0.86 | Stable | 0.89 | Stable | 0.88 | Stable | Oc1cc(O)cc(Oc2cc(O)c(O)c3c2Oc2c(O)cc(O)cc2O3)c1 [Dicaval C] | 82 | 100 | 100
